Article PMC9492542, “Brain-restricted mTOR inhibition with binary pharmacology” (Nature, 2022)
Where two headings read alike, the source gives them in different places.

Key:
476 purified kinases [1] = target: 476 purified kinases (Homo sapiens, UniProt Q86V86); conditions: ZLYTE
Method: (§1) In vitro kinase inhibition assays were performed by SelectScreen Services (Thermo Fisher Scientific) using either Z’-LYTE (mTOR, Src, Csk, EGFR, HER2 and HGK), Adapta (LRRK2) or LanthaScreen (DDR2) assay format (standardized protocols can be accessed on the SelectScreen website: https://www.thermofisher.com/us/en/home/products-and-services/services/custom-services/screening-and-profiling-services/selectscreen-profiling-service/selectscreen-kinase-profiling-service.html. When indicated, recombinant FKBP12 protein was added to the assay mixture to a final concentration of 10 µM.

476 purified kinases [2] = target: 476 purified kinases (Homo sapiens, UniProt Q13237); conditions: ZLYTE
Method: as §1

476 purified kinases [3] = target: 476 purified kinases (Homo sapiens, UniProt Q9Y2H1)
Method: as §1

476 purified kinases [4] = target: 476 purified kinases (Homo sapiens, UniProt Q96S53)
Method: as §1

476 purified kinases [5] = target: 476 purified kinases (Homo sapiens, UniProt Q86Z02); conditions: ZLYTE; 10 nM
Method: as §1

476 purified kinases [6] = target: 476 purified kinases (Homo sapiens, UniProt O15264); conditions: ZLYTE
476 purified kinases (Homo sapiens, UniProt O15264), sequence (O15264 whole entry): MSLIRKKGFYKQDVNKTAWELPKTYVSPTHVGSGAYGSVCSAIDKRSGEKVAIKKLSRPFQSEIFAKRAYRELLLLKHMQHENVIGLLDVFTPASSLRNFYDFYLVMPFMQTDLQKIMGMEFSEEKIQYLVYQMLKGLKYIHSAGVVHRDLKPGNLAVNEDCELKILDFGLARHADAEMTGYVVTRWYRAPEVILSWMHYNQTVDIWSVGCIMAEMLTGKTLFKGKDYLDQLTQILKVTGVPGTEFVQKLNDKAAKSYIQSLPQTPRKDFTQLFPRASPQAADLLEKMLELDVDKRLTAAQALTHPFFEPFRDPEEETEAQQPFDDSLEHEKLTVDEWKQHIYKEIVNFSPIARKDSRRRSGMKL
Method: as §1

476 purified kinases [7] = target: 476 purified kinases (Homo sapiens, UniProt Q8NFD2)
476 purified kinases (Homo sapiens, UniProt Q8NFD2), sequence (Q8NFD2 whole entry): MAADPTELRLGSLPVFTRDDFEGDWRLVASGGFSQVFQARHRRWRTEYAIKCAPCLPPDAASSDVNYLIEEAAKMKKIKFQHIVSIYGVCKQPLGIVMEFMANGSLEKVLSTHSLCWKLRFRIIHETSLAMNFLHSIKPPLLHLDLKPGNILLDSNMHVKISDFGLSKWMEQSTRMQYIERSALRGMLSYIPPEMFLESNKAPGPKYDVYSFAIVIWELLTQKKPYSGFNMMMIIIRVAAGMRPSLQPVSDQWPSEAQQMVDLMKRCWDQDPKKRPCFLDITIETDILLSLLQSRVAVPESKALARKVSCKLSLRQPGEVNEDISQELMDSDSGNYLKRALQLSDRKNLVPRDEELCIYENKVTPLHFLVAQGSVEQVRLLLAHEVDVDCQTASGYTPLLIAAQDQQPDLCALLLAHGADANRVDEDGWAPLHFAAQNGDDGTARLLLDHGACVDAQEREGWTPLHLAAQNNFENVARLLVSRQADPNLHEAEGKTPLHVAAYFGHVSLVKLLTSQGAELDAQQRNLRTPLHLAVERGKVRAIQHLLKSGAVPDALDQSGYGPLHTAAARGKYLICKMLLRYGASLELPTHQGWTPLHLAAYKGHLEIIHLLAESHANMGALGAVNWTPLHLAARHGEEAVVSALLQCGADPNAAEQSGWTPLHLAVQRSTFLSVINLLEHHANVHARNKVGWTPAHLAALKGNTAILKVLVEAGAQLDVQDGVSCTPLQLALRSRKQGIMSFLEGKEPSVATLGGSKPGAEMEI
Method: as §1

476 purified kinases [8] = target: 476 purified kinases (Homo sapiens, UniProt O76039); conditions: ZLYTE
Method: as §1

476 purified kinases [9] = target: 476 purified kinases (Homo sapiens, UniProt Q32MK0)
476 purified kinases (Homo sapiens, UniProt Q32MK0), sequence (Q32MK0 whole entry): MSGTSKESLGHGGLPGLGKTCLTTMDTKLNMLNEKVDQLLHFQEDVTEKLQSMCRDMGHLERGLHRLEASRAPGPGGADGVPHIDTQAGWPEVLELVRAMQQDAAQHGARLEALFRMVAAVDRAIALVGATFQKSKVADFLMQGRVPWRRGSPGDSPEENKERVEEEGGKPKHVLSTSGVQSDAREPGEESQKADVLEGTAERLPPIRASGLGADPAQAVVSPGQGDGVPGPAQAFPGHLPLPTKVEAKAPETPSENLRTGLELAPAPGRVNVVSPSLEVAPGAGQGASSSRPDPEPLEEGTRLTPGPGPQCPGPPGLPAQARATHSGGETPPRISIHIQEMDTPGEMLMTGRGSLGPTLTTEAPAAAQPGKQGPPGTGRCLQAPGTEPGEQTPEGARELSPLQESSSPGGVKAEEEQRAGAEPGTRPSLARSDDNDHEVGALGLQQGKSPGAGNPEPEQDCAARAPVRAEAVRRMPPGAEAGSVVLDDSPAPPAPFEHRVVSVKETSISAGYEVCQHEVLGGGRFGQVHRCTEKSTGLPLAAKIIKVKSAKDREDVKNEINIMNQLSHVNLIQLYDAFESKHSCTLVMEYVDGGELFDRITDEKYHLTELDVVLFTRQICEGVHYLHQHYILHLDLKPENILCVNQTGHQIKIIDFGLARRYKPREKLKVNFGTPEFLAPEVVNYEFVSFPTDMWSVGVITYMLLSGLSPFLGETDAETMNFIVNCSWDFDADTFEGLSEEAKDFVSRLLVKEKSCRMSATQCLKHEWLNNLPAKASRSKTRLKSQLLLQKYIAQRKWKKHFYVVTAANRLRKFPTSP
Method: as §1

476 purified kinases [10] = target: 476 purified kinases (Homo sapiens, UniProt Q86UX6)
Method: as §1

476 purified kinases [11] = target: 476 purified kinases (Homo sapiens, UniProt Q00537); conditions: ZLYTE
Method: as §1

476 purified kinases [12] = target: 476 purified kinases (Homo sapiens, UniProt Q9UKI8)
Method: as §1

476 purified kinases [13] = target: 476 purified kinases (Homo sapiens, UniProt Q8IYT8)
476 purified kinases (Homo sapiens, UniProt Q8IYT8), sequence (Q8IYT8 whole entry): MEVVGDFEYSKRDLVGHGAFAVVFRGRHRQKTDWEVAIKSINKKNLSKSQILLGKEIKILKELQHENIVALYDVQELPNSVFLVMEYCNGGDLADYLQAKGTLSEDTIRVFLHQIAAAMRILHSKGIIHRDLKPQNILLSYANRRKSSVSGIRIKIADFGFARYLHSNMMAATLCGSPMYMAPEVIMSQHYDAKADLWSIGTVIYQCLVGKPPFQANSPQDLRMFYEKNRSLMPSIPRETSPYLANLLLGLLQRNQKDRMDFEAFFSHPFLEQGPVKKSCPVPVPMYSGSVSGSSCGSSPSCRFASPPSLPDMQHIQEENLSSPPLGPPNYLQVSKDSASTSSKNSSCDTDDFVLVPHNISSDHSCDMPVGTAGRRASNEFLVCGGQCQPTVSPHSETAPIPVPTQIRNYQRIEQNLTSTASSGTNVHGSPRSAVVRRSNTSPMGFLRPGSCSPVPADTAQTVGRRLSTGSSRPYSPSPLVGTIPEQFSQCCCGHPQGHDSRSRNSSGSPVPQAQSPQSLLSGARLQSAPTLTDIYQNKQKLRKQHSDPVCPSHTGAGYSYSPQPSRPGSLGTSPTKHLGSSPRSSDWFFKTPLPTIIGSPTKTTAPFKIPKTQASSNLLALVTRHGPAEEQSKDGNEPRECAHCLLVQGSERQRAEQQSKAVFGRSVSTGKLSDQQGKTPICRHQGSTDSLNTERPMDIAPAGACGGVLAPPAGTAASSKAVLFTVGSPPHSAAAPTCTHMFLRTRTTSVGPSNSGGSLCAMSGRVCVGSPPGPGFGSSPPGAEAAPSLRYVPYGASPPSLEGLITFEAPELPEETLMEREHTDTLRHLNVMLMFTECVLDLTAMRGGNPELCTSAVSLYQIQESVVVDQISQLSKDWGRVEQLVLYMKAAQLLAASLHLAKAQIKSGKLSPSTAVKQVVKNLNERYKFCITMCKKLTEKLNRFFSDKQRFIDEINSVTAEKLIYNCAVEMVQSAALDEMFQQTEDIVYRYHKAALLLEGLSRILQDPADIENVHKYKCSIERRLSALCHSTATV
Method: as §1

476 purified kinases [14] = target: 476 purified kinases (Homo sapiens, UniProt Q86UE8)
Method: as §1

476 purified kinases [15] = target: 476 purified kinases (Homo sapiens, UniProt Q09013)
Method: as §1

476 purified kinases [16] = target: 476 purified kinases (Homo sapiens, UniProt Q13705)
476 purified kinases (Homo sapiens, UniProt Q13705), sequence (Q13705 19-512): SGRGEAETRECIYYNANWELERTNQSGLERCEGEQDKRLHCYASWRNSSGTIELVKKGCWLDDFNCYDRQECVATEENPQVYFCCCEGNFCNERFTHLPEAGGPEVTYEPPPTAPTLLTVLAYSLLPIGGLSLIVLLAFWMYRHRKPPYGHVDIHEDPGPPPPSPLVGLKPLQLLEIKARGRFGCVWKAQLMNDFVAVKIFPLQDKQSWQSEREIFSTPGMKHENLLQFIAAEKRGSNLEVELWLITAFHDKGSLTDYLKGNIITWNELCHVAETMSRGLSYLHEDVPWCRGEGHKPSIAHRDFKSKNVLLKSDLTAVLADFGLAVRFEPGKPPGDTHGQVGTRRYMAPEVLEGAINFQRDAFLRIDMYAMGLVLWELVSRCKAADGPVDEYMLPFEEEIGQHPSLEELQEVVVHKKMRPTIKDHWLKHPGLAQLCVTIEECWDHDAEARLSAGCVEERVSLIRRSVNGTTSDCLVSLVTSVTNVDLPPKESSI
Method: as §1

476 purified kinases [17] = target: 476 purified kinases (Homo sapiens, UniProt O43318); conditions: 10 nM compound + 10 µM FKBP12
Method: as §1

476 purified kinases [18] = target: 476 purified kinases (Homo sapiens, UniProt P24723); conditions: ZLYTE
Method: as §1

476 purified kinases [19] = target: 476 purified kinases (Homo sapiens, UniProt P37173)
Method: as §1

476 purified kinases [20] = target: 476 purified kinases (Homo sapiens, UniProt O95819); conditions: ZLYTE
Method: as §1

476 purified kinases (Homo sapiens, UniProt Q13237), sequence (Q13237 whole entry): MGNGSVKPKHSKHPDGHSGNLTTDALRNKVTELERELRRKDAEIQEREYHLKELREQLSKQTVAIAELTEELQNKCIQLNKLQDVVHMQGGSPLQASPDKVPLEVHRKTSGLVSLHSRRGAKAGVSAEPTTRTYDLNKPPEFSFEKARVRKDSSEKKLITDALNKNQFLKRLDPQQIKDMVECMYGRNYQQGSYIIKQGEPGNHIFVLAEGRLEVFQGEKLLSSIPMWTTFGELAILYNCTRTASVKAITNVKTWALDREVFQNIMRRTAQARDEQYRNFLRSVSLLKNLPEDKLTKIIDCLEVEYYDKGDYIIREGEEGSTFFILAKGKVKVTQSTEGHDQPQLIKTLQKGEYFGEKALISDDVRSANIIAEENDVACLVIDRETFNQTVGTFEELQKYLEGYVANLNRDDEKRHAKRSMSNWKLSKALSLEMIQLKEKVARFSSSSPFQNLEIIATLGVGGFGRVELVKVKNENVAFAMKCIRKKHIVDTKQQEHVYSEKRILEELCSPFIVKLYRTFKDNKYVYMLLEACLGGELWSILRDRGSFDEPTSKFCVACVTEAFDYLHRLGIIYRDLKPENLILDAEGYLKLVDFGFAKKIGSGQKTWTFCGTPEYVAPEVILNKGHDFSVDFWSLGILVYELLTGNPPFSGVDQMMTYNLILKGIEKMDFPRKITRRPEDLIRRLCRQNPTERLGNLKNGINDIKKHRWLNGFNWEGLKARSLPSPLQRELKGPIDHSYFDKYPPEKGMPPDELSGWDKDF
476 purified kinases (Homo sapiens, UniProt Q9Y2H1), sequence (Q9Y2H1 whole entry): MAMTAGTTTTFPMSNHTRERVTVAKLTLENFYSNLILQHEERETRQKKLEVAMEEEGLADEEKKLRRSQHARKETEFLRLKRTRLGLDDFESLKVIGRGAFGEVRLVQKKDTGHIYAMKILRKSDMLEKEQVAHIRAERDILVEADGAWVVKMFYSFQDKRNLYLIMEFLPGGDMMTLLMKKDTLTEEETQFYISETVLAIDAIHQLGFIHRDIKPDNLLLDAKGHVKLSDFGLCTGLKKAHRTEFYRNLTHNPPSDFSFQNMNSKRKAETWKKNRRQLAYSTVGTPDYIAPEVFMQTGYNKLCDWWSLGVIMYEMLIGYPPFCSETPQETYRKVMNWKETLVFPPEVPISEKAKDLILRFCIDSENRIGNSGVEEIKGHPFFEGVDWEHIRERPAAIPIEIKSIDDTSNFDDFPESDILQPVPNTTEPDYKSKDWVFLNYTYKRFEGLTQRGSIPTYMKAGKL

Cc1nc(Nc2ncc(C(=O)Nc3c(C)cccc3Cl)s2)cc(N2CCN(CCO)CC2)n1 [Dasatinib]
PIM3 (kinase profiling) (476 purified kinases [1]; 10 nM): 4 | PIM3 (kinase profiling) (476 purified kinases [1]; 10 nM + 10 µM FKBP12): -6 | PRKG2 (PKG2) (kinase profiling) (476 purified kinases [2]; 10 nM): 1 | PRKG2 (PKG2) (kinase profiling) (476 purified kinases [2]; 10 nM + 10 µM FKBP12): -7 | STK38L (NDR2) (LanthaScreen Binding) (476 purified kinases [3]; 10 nM compound): -2 | STK38L (NDR2) (LanthaScreen Binding) (476 purified kinases [3]; 10 nM compound + 10 µM FKBP12): -3 | TESK2 (LanthaScreen Binding) (476 purified kinases [4]; 10 nM compound): 30 | TESK2 (LanthaScreen Binding) (476 purified kinases [4]; 10 nM compound + 10 µM FKBP12): 35 | HIPK1 (Myak) (kinase profiling) (476 purified kinases [5]): 1 | MAPK13 (p38 delta) (kinase profiling) (476 purified kinases [6]; 10 nM): 4 | MAPK13 (p38 delta) (kinase profiling) (476 purified kinases [6]; 10 nM + 10 µM FKBP12): 6 | ANKK1 (LanthaScreen Binding) (476 purified kinases [7]; 10 nM compound): 1 | ANKK1 (LanthaScreen Binding) (476 purified kinases [7]; 10 nM compound + 10 µM FKBP12): 11 | CDKL5 (kinase profiling) (476 purified kinases [8]; 10 nM): 5 | CDKL5 (kinase profiling) (476 purified kinases [8]; 10 nM + 10 µM FKBP12): 7 | MLCK (MLCK2) (LanthaScreen Binding) (476 purified kinases [9]; 10 nM compound): -3 | MLCK (MLCK2) (LanthaScreen Binding) (476 purified kinases [9]; 10 nM compound + 10 µM FKBP12): 3 | STK32C (YANK3) (LanthaScreen Binding) (476 purified kinases [10]; 10 nM compound): -1 | STK32C (YANK3) (LanthaScreen Binding) (476 purified kinases [10]; 10 nM compound + 10 µM FKBP12): -2 | CDK17/cyclin Y (kinase profiling) (476 purified kinases [11]; 10 nM): 7 | CDK17/cyclin Y (kinase profiling) (476 purified kinases [11]; 10 nM + 10 µM FKBP12): 8 | TLK1 (LanthaScreen Binding) (476 purified kinases [12]; 10 nM compound): -1 | TLK1 (LanthaScreen Binding) (476 purified kinases [12]; 10 nM compound + 10 µM FKBP12): 4 | ULK2 (LanthaScreen Binding) (476 purified kinases [13]; 10 nM compound): -3 | ULK2 (LanthaScreen Binding) (476 purified kinases [13]; 10 nM compound + 10 µM FKBP12): -6 | TLK2 (LanthaScreen Binding) (476 purified kinases [14]; 10 nM compound): -3 | TLK2 (LanthaScreen Binding) (476 purified kinases [14]; 10 nM compound + 10 µM FKBP12): -3 | DMPK (LanthaScreen Binding) (476 purified kinases [15]; 10 nM compound): 1 | DMPK (LanthaScreen Binding) (476 purified kinases [15]; 10 nM compound + 10 µM FKBP12): 4 | ACVR2B (LanthaScreen Binding) (476 purified kinases [16]; 10 nM compound): 5 | ACVR2B (LanthaScreen Binding) (476 purified kinases [16]; 10 nM compound + 10 µM FKBP12): 12 | MAP3K7/MAP3K7IP1 (TAK1-TAB1) (LanthaScreen Binding) (476 purified kinases [17]): -7 | PRKCH (PKC eta) (kinase profiling) (476 purified kinases [18]; 10 nM): 20 | PRKCH (PKC eta) (kinase profiling) (476 purified kinases [18]; 10 nM + 10 µM FKBP12): 5 | TGFBR2 (LanthaScreen Binding) (476 purified kinases [19]; 10 nM compound): -5 | TGFBR2 (LanthaScreen Binding) (476 purified kinases [19]; 10 nM compound + 10 µM FKBP12): -5 | MAP4K4 (HGK) (kinase profiling) (476 purified kinases [20]; 10 nM): 10 | MAP4K4 (HGK) (kinase profiling) (476 purified kinases [20]; 10 nM + 10 µM FKBP12): 12
